Test results taken from paper PMC8850458, “The AUTOTAC chemical biology platform for targeted protein degradation via the autophagy-lysosome system” (Nature Communications, 2022).
pIC50: −log10 of the molar value. Several values for one entry are separate records, joined by “and”; a condition that tells them apart may be missing. Equal entries are not always repeated. Where two headings read alike, the source gives them in different places. Blank lines part the entries; values can stand above or below the molecule they belong to.

Experiments:
[1] = WST-based cell viability assay in ACHN cells; conditions: human, ACHN cells; for viability at 0.01 µM / viability at 0.1 µM / viability at 1 µM / viability at 10 µM / viability at 50 µM / viability at 100 µM: ACHN
ACHN cells = assay: WST-based cell viability assay in ACHN cells; conditions: for WST assay raw reading / WST assay viability relative to con = 100: ACHN, duplicates
androgen receptor (AR) = target: T1, androgen receptor (AR) (Homo sapiens, UniProt P10275, T878A); assay: Western blot degradation of AR in LNCaP cells; assay type: cell-based; conditions: for DC50: LNCaP prostate cancer cells; for AR normalized to control, AVG % / AR normalized to GAPDH and to control, percentage: LncaP; for AR normalized to GAPDH and to control, percentage: single experiments, listed as Vinclo.-2204
T1 construct: Targeted autophagic degradation of endogenous oncoproteins by AUTOTAC; endogenous in cells; host or cells: LNCaP
T1 sequence (P10275 1-920 T878A): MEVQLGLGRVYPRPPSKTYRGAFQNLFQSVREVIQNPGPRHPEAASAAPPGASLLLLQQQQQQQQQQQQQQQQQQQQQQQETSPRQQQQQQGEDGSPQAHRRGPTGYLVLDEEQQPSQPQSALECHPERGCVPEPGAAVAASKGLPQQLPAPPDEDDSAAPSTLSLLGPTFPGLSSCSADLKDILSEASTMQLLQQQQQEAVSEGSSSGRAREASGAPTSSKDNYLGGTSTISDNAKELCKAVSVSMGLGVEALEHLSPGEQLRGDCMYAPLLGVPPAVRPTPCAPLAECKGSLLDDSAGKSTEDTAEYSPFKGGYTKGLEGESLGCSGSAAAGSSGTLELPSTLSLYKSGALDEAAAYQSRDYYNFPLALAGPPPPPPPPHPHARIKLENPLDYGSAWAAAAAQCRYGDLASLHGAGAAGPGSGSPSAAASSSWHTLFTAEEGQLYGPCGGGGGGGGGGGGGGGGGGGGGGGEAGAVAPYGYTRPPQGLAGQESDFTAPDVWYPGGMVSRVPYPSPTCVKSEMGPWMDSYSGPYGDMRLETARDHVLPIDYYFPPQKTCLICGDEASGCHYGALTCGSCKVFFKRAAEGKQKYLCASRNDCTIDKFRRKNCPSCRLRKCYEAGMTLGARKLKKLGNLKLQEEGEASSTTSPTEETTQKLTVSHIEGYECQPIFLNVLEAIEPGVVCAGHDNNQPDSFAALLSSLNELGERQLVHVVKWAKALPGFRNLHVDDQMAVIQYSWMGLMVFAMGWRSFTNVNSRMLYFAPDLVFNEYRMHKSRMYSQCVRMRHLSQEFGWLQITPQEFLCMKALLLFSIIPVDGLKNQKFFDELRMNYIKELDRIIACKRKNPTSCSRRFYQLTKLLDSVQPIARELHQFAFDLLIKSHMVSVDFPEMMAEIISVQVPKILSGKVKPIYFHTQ
Protocol: Adherent cells were washed with phosphate-buffered saline (PBS) and cell pellets were lysed in SDS-based sample buffer (277.8 mM Tris-HCI, pH 6.8, 4.4% LDS, 44.4% (v/v) glycerol) containing beta-mercaptoethanol. Alternatively, cell pellets or protein supernatants were lysed in 5X Laemmli sample buffer. Whole-cell lysates were separated using SDS-PAGE, and transferred onto polyvinyllidene difluoride membranes at 100 V for 2 h at 4 °C. The membrane was incubated with a blocking solution consisting 4% skim milk in PBS solution for 30 min at room temperature and incubated with primary antibodies overnight, followed by incubation with host-specific HRP-conjugated secondary antibodies (1:10000 dilution). For signal detection, the membrane was developed with a mixture of ECL solution (Thermo Fisher Scientific) using X-ray films. Densitometry of developed bands was measured and analyzed with ImageJ (NIH, Bethesda).

[2] = duplicates, read-out: WST assay viability relative to con = 100
[3] = read-out: WST assay viability, AVG %

Structure (SMILES): O[C@H](CNCCOCCOCCOc1ccc(-c2c(-c3ccccc3)nn3c(C(F)(F)F)cc(C(F)(F)F)nc23)cc1)COc1ccc(OCc2ccccc2)c(OCCCc2ccccc2)c1 [PHTPP-1304]
viability at 0.01 µM [1, 2]: 101% | viability at 0.01 µM [1, 3]: 99.6% | viability at 0.1 µM [1, 2]: 102% | viability at 0.1 µM [1, 3]: 101% | viability at 1 µM [1, 2]: 96.2% | viability at 1 µM [1, 3]: 96.2% | viability at 10 µM [1, 2]: 2.13% | viability at 10 µM [1, 3]: 2.08% | viability at 50 µM [1, 2]: 12.3% | viability at 50 µM [1, 3]: 11.6% | viability at 100 µM [1, 2]: 14.8% | viability at 100 µM [1, 3]: 15.8% | pIC50 ([1]; WST-based viability assay, read-out: cytotoxicity IC50): 5.48 | higher cytotoxicity than p62-binding ligand or TBL (ACHN cells; ACHN cells): ~ 5 fold | WST assay raw reading (ACHN cells; 0.01uM): 1.001 and 0.98 | WST assay viability relative to con = 100 (ACHN cells; 0.01uM): 98.3465 | WST assay raw reading (ACHN cells; 0.1uM): 1.009 and 1.004 | WST assay viability relative to con = 100 (ACHN cells; 0.1uM): 101.115 | WST assay raw reading (ACHN cells; 1uM): 0.961 and 0.962 | WST assay viability relative to con = 100 (ACHN cells; 1uM): 96.2699 | WST assay raw reading (ACHN cells; 10uM): 0.146 and 0.145 | WST assay viability relative to con = 100 (ACHN cells; 10uM): 2.019 | WST assay raw reading (ACHN cells; 50uM): 0.234 and 0.222 | WST assay viability relative to con = 100 (ACHN cells; 50uM): 10.9017 | WST assay raw reading (ACHN cells; 100uM): 0.256 and 0.273 | WST assay viability relative to con = 100 (ACHN cells; 100uM): 16.7852

DC50 (androgen receptor (AR)): ~200 nM | DC50 (androgen receptor (AR); listed as Vinclozolin-2204): 211 nM | AR normalized to control, AVG % (androgen receptor (AR); 10 nM): 98.914% | AR normalized to GAPDH and to control, percentage (androgen receptor (AR); 10 nM): 90.6238% and 111.624% and 94.4939% | AR normalized to control, AVG % (androgen receptor (AR); 50 nM): 121.781% | AR normalized to GAPDH and to control, percentage (androgen receptor (AR); 50 nM): 119.329% and 128.663% and 117.351% | AR normalized to control, AVG % (androgen receptor (AR); 100 nM): 60.0788% | AR normalized to GAPDH and to control, percentage (androgen receptor (AR); 100 nM): 61.0357% and 62.8026% and 56.3981% | AR normalized to control, AVG % (androgen receptor (AR); 0.5 uM): 19.2601% | AR normalized to GAPDH and to control, percentage (androgen receptor (AR); 0.5 uM): 14.6016% and 23.3958% and 19.7827% | AR normalized to control, AVG % (androgen receptor (AR); 1 uM): 23.6569% | AR normalized to control, AVG % (androgen receptor (AR); 2.5 uM): 22.3824% | AR normalized to control, AVG % (androgen receptor (AR); 10 uM): 6.006% | AR normalized to GAPDH and to control, percentage (androgen receptor (AR); 10 uM): 9.375% and 3.388% and 5.255%
Structure (SMILES): C=CC(C)(O)C(=O)N(C(=O)NCCOCCOCCNCC(O)COc1ccc(OCCc2ccccc2)c(OCCc2ccccc2)c1)c1cc(Cl)cc(Cl)c1 (stereo not shown) [VinclozolinM2-2204]
